Key:
fibrin clot formation = details: CaCl2 between about 8 mM and about 30 mM; 5-fold zymogen, 3.5% (w/v) fibrinogen, tissue factor and phospholipids
Description: In the following experiment, the concentration range of calcium ion (CaCl2 concentration) as an inducer to accelerate fibrin clot formation in the zymogen (PPSB concentrate) and fibrinogen comprising mixture (prepared from BAC2) described in Example 1 was explored. In this Example, the zymogen mixture was prepared at a concentration of 10-fold (10 IU FII/ml), as compared to plasma, and mixed in the same volumetric ratio with the same fibrinogen solution as above (final 5-fold concentrations of zymogen, compared to plasma, and 3.5% (w/v) fibrinogen). No EDTA was used. In this experiment, initiation of clotting was performed using a calcium-depleted PT (prothrombin time) reagent comprising tissue factor and phospholipids; a clotting initiator that is typically present in bleeding/injured surfaces and on the surface of activated platelets, respectively. By using both tissue factor and phospholipids, a bleeding surface is simulated. CaCl2 at increasing concentrations was supplemented to the mixture and the clotting time was measured using a Start4 clotting analyzer (Diagnostica Stago).

fibrin [1] = molecular target: T1, fibrin (Homo sapiens, UniProt P02671+P02675+P02679); test: Rate of fibrin clot formation at different GPRP concentrations, cessation of flow upon inversion of the tube; type: biochemical; details: 3% fibrin, thrombin 100 IU/ml
Description: In the following experiment, the effect of adjusting the concentration of GPRP (SEQ ID NO: 1) inhibitor on fibrin clot formation rate was tested. GPRP (SEQ ID NO: 1) at different concentrations (0.1 mM, 0.2 mM, 0.5 mM, 1 mM, 1.5 mM, 2 mM, 3 mM, 4 mM, and 5 mM) was added to a fibrinogen containing solution (a fixed concentration of 3% w/v, prepared by diluting the BAC2 component of EVICEL® in 40 mM citrate buffer).
To generate fibrin monomers, dimers and/or oligomers, thrombin was added to the mixture; a 10% volume of the thrombin component of EVICEL® was added to yield a final concentration of 100 international units/ml (IU/ml). The rate of fibrin clot formation was measured by cessation of flow of the mixture upon inversion of the tube.

fibrin [2] = molecular target: T1, fibrin; test: as above; type: biochemical; details: above molar ratio 340:1 GPRP:fibrin (40 mM GPRP at tested fibrinogen concentration)
thrombin = thrombin (Homo sapiens, UniProt P00734); details: cited from earlier work

T1 sequence (P02671 36-644 isoform P02671-2 limits assumed): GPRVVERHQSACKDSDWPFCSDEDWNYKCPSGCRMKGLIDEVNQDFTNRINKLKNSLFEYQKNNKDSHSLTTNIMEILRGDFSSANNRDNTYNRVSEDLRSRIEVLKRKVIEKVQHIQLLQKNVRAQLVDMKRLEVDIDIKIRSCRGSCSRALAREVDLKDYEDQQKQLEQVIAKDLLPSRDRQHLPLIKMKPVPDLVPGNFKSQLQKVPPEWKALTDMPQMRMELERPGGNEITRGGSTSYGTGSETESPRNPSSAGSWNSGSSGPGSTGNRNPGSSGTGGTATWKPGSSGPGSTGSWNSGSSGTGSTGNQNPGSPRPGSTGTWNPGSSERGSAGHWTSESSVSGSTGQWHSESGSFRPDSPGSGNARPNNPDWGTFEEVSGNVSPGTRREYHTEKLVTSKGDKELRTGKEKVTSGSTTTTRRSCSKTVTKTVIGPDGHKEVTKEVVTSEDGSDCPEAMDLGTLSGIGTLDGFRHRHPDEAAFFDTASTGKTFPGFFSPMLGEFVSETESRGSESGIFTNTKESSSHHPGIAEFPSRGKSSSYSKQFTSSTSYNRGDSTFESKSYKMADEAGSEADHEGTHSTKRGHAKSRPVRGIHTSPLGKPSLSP
T1 sequence (P02675 45-491 limits assumed): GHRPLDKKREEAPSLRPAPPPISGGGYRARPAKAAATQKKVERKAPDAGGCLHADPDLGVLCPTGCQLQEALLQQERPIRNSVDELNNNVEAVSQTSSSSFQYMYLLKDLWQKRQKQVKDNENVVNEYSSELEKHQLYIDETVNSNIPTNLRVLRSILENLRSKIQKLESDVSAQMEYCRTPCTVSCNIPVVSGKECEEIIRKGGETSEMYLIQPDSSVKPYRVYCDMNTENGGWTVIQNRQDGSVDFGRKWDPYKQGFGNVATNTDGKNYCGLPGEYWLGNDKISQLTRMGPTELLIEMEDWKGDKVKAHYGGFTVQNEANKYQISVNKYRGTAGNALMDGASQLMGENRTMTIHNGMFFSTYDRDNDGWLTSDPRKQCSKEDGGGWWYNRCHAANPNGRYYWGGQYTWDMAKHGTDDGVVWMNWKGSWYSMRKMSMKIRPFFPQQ
T1 sequence (P02679 27-437 isoform P02679-2 limits assumed): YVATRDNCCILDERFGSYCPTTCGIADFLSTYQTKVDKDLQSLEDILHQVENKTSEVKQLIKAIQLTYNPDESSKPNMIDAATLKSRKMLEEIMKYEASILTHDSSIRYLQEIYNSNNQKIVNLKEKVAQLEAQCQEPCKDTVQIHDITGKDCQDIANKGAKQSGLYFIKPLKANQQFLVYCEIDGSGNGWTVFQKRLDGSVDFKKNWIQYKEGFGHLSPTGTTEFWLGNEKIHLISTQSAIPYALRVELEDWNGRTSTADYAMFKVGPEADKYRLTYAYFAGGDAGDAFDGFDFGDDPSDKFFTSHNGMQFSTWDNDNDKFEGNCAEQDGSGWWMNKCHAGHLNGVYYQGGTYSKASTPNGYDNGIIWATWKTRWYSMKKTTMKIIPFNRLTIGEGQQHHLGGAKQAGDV

[Ca+2].[Cl-].[Cl-] [CaCl2, calcium chloride]
clotting time (fibrin clot formation): < 20 s

Gly-Pro-Arg-Pro [GPRP]
Time to clot (fibrin [1]; 0.1 mM GPRP): 5 s | Time to clot (fibrin [1]; 0.2 mM GPRP): 7 s | Time to clot (fibrin [1]; 0.5 mM GPRP): 11 s | Time to clot (fibrin [1]; 1 mM GPRP): 13 s | Time to clot (fibrin [1]; 1.5 mM GPRP): 22 s | Time to clot (fibrin [1]; 2 mM GPRP): 28 s | Time to clot (fibrin [1]; 3 mM GPRP): 150 s | Time to clot (fibrin [1]; 4 mM GPRP): 480 s | Time to clot (fibrin [1]; 5 mM GPRP): 900 s | time for which no polymerization was observed (fibrin [2]): > 14 days

hirudin
binds thrombin (affinity) (thrombin): picoM range

Source: US11957324B2, “Device and method for preparing and administering one-component fibrin sealant” (Ethicon, Inc., priority 2014, dated 2024)
